Measurements as given in patent publication US20100151104A1, “Preservative System For Beverages Based On Combinations Of Trans-Cinnamic Acid, Lauric Arginate, And Dimethyl Dicarbonate” (priority 2008, published 2010).

Columns and labels:
Assay type in all cases: cell-based
[1] = tested on: seven bio-indicator strains (Zygosaccharomyce baili, Brettanomyces species, Saccharomyces cerevisiae, Paecilomyces lilacinus, Zygosaccharomyces bisporus …); experiment: Example 2: growth/no growth of seven bio-indicator strains in 4% apple juice beverage, 16 weeks; conditions: FIGS. 1a, 1b; stand alone; pH 3.4; 16 weeks at 25° C.
Description: A single preparation of base beverage was employed to prepare each of five tests and consisted of 4% apple juice, 68 g sucrose/L, 52 g glucose/L, 2 g fructose/L prepared in batch water that was formulated to 90 ppm hardness with calcium chloride and magnesium chloride. […] The total combined quantity of sodium malate and malic acid was near constant, but the ratio of malic acid and malate varied slightly given the presence or absence of lauric arginate or cinnamic acid. Where required, lauric arginate or cinnamic acid was supplemented from separately prepared stock solutions. Each of the five tests employed the same bio-indicator organisms; Growth (+) versus no growth (-) established by visual inspection or spectrophotometrically. […] Y3, Zygosaccharomyce baili, Pepsi isolate 906; C-7UP, Brettanomyces species, Pepsi Isolate; Spore, an ascospore preparation of Saccharomyces cerevisiae 99 a Pepsi Isolate; […], Zygosaccharomyces baili, ATCC 60484; Spores, M7, Paecilomyces lilacinus ATCC 90461; […], Zygosaccharomyces bisporus ATCC 52407; Spores, M4, Talaromvces flavus var. flavus ATCC 10512. Samples were incubated for period of 16 weeks at 25° C. in vessels protective against evaporation.

Saccharomyces cerevsiae = experiment: Growth in 10% apple juice beverage with combinations of LAE & cinnamic acid; log (QA/Qa+QB/Qb) calculation; conditions: for amount of growth (normalized) to control: LAE 0 ppm
Description: (§1) Trans-cinnamic acid and lauric arginate were combined in the following beverage formulation: [table] • Values reflect amount of growth (normalized) to control (0 ppm LAE & 0 ppm Cinnamic acid) for each pH tested. […] The analysis of the interaction between lauric arginate and cinnamic acid can be refined through use of a mathematical method developed by Voorspuij and Nass (Arch. Int. pharmacodyn. 59:211 1957) (generally accepted among those practiced in the art.) Herein, the interactions between two active substances can be explored. First the quantity (Qa=Molar Cone) of compound A required for an end point (concentration required to stabilize product for 16 weeks) is established. Similarly, the quantity (Qb =Molar cone) of substance B required to establish the same endpoint is established. Thereafter, mixtures of A & B, in quantities QA & Qs are established that also define endpoints. […] If the sum of the ratios for a mixture of A & Bare=1, then the interaction is considered additive. […] Calculation of log (QA/Qa+QB/Qb) for LAE+trans Cinnamic Acid vs Saccharomyces […]

Brettanomyces nardensis = experiment: as above; conditions: for amount of growth (normalized) to control: LAE 0 ppm
Description: as §1, with “[table]” for “[table] • Values reflect amount of growth (normalized) to control (0 ppm LAE & 0 ppm Cinnamic acid) for each pH tested.”, “Brettanomyces” for “Saccharomyces”

Zygosaccharomyces bailii = experiment: as above; conditions: for amount of growth (normalized) to control: LAE 0 ppm
Description: Trans-cinnamic acid and lauric arginate were combined in the following beverage formulation: [table] […] The analysis of the interaction between lauric arginate and cinnamic acid can be refined through use of a mathematical method developed by Voorspuij and Nass (Arch. Int. pharmacodyn. 59:211 1957) (generally accepted among those practiced in the art.) Herein, the interactions between two active substances can be explored. First the quantity (Qa=Molar Cone) of compound A required for an end point (concentration required to stabilize product for 16 weeks) is established. Similarly, the quantity (Qb =Molar cone) of substance B required to establish the same endpoint is established. Thereafter, mixtures of A & B, in quantities QA & Qs are established that also define endpoints. […] If the sum of the ratios for a mixture of A & Bare=1, then the interaction is considered additive. […] Calculation of log (QA/Qa+QB/Qb) for LAE+trans Cinnamic Acid vs Zygosaccharomyces bailii

[2] = stand alone, end point = concentration required to stabilize product for 16 weeks

O=C(O)/C=C/c1ccccc1 [Cinnamic Acid, trans-cinnamic acid]
concentration required to inhibit all seven bio-indicator strains [1]: 1.61 mM
QA/Qa + QB/Qb (Saccharomyces cerevsiae; QLAE 0, QCA 300): 1.00
QLAE/QLAE* (Saccharomyces cerevsiae; QLAE 0, QCA 300): 0.00
QNaB/QNAB* (Saccharomyces cerevsiae; QLAE 0, QCA 300): 1.00
log (QA/Qa + QB/Qb) (Saccharomyces cerevsiae; QLAE 0, QCA 300): 0.0000
amount of growth (normalized) to control (Saccharomyces cerevsiae; pH 3.0, Cinnamic Acid 10 ppm): 80%
amount of growth (normalized) to control (Saccharomyces cerevsiae; pH 3.0, Cinnamic Acid 20 ppm): 74%
amount of growth (normalized) to control (Saccharomyces cerevsiae; pH 3.0, Cinnamic Acid 50 ppm): 50%
amount of growth (normalized) to control (Saccharomyces cerevsiae; pH 3.0, Cinnamic Acid 75 ppm): 26%
amount of growth (normalized) to control (Saccharomyces cerevsiae; pH 3.0, Cinnamic Acid 100 ppm): 11%
amount of growth (normalized) to control (Saccharomyces cerevsiae; pH 3.5, Cinnamic Acid 10 ppm): 96%
amount of growth (normalized) to control (Saccharomyces cerevsiae; pH 3.5, Cinnamic Acid 20 ppm): 85%
amount of growth (normalized) to control (Saccharomyces cerevsiae; pH 3.5, Cinnamic Acid 50 ppm): 61%
amount of growth (normalized) to control (Saccharomyces cerevsiae; pH 3.5, Cinnamic Acid 75 ppm): 44%
amount of growth (normalized) to control (Saccharomyces cerevsiae; pH 3.5, Cinnamic Acid 100 ppm): 22%
amount of growth (normalized) to control (Saccharomyces cerevsiae; pH 4.0, Cinnamic Acid 10 ppm): 96%
amount of growth (normalized) to control (Saccharomyces cerevsiae; pH 4.0, Cinnamic Acid 20 ppm): 87%
amount of growth (normalized) to control (Saccharomyces cerevsiae; pH 4.0, Cinnamic Acid 50 ppm): 72%
amount of growth (normalized) to control (Saccharomyces cerevsiae; pH 4.0, Cinnamic Acid 75 ppm): 54%
amount of growth (normalized) to control (Saccharomyces cerevsiae; pH 4.0, Cinnamic Acid 100 ppm): 39%
QCA* (quantity of cinnamic acid alone required for the end point) (Saccharomyces cerevsiae; [2]): QCA* 300
QA/Qa + QB/Qb (Brettanomyces nardensis; QLAE 0, QCA 50): 1.00
QLAE/QLAE* (Brettanomyces nardensis; QLAE 0, QCA 50): 0.00
QNaB/QNAB* (Brettanomyces nardensis; QLAE 0, QCA 50): 1.00
log (QA/Qa + QB/Qb) (Brettanomyces nardensis; QLAE 0, QCA 50): 0.0000
amount of growth (normalized) to control (Brettanomyces nardensis; pH 3.0, Cinnamic Acid 10 ppm): 89%
amount of growth (normalized) to control (Brettanomyces nardensis; pH 3.0, Cinnamic Acid 20 ppm): 67%
amount of growth (normalized) to control (Brettanomyces nardensis; pH 3.0, Cinnamic Acid 50 ppm): 1%
amount of growth (normalized) to control (Brettanomyces nardensis; pH 3.0, Cinnamic Acid 75 ppm): 0%
amount of growth (normalized) to control (Brettanomyces nardensis; pH 3.0, Cinnamic Acid 100 ppm): 0%
amount of growth (normalized) to control (Brettanomyces nardensis; pH 3.5, Cinnamic Acid 10 ppm): 88%
amount of growth (normalized) to control (Brettanomyces nardensis; pH 3.5, Cinnamic Acid 20 ppm): 79%
amount of growth (normalized) to control (Brettanomyces nardensis; pH 3.5, Cinnamic Acid 50 ppm): 2%
amount of growth (normalized) to control (Brettanomyces nardensis; pH 3.5, Cinnamic Acid 75 ppm): 1%
amount of growth (normalized) to control (Brettanomyces nardensis; pH 3.5, Cinnamic Acid 100 ppm): 1%
amount of growth (normalized) to control (Brettanomyces nardensis; pH 4.0, Cinnamic Acid 10 ppm): 118%
amount of growth (normalized) to control (Brettanomyces nardensis; pH 4.0, Cinnamic Acid 20 ppm): 101%
amount of growth (normalized) to control (Brettanomyces nardensis; pH 4.0, Cinnamic Acid 50 ppm): 5%
amount of growth (normalized) to control (Brettanomyces nardensis; pH 4.0, Cinnamic Acid 75 ppm): 2%
amount of growth (normalized) to control (Brettanomyces nardensis; pH 4.0, Cinnamic Acid 100 ppm): 1%
QCA* (quantity of cinnamic acid alone required for the end point) (Brettanomyces nardensis; [2]): QCA* 50
QA/Qa + QB/Qb (Zygosaccharomyces bailii; QLAE 0, QCA 300): 1.00
QLAE/QLAE* (Zygosaccharomyces bailii; QLAE 0, QCA 300): 0.00
QNaB/QNAB* (Zygosaccharomyces bailii; QLAE 0, QCA 300): 1.00
log (QA/Qa + QB/Qb) (Zygosaccharomyces bailii; QLAE 0, QCA 300): 0.0000
amount of growth (normalized) to control (Zygosaccharomyces bailii; pH 3.0, Cinnamic Acid 10 ppm): 89%
amount of growth (normalized) to control (Zygosaccharomyces bailii; pH 3.0, Cinnamic Acid 20 ppm): 82%
amount of growth (normalized) to control (Zygosaccharomyces bailii; pH 3.0, Cinnamic Acid 50 ppm): 85%
amount of growth (normalized) to control (Zygosaccharomyces bailii; pH 3.0, Cinnamic Acid 75 ppm): 45%
amount of growth (normalized) to control (Zygosaccharomyces bailii; pH 3.0, Cinnamic Acid 100 ppm): 36%
amount of growth (normalized) to control (Zygosaccharomyces bailii; pH 3.5, Cinnamic Acid 10 ppm): 97%
amount of growth (normalized) to control (Zygosaccharomyces bailii; pH 3.5, Cinnamic Acid 20 ppm): 92%
amount of growth (normalized) to control (Zygosaccharomyces bailii; pH 3.5, Cinnamic Acid 50 ppm): 76%
amount of growth (normalized) to control (Zygosaccharomyces bailii; pH 3.5, Cinnamic Acid 75 ppm): 57%
amount of growth (normalized) to control (Zygosaccharomyces bailii; pH 3.5, Cinnamic Acid 100 ppm): 48%
amount of growth (normalized) to control (Zygosaccharomyces bailii; pH 4.0, Cinnamic Acid 10 ppm): 103%
amount of growth (normalized) to control (Zygosaccharomyces bailii; pH 4.0, Cinnamic Acid 20 ppm): 94%
amount of growth (normalized) to control (Zygosaccharomyces bailii; pH 4.0, Cinnamic Acid 50 ppm): 78%
amount of growth (normalized) to control (Zygosaccharomyces bailii; pH 4.0, Cinnamic Acid 75 ppm): 74%
amount of growth (normalized) to control (Zygosaccharomyces bailii; pH 4.0, Cinnamic Acid 100 ppm): 56%
QCA* (quantity of cinnamic acid alone required for the end point) (Zygosaccharomyces bailii; [2]): QCA* 300
